Data reported in publication PMC12508159 (NPJ Biofilms and Microbiomes, 2025).

Columns and labels:
[1] = molecular target: T1, serine-rich adhesin for platelets (SraP), L-lectin module (SLL) (Staphylococcus aureus, UniProt Q8NUJ3); test: SPR; type: binding
[2] = molecular target: T1, serine-rich adhesin for platelets (SraP), L-lectin module (SLL); test: SPR; type: binding; remark: listed apart in the source

T1 sequence (Q8NUJ3 245-480): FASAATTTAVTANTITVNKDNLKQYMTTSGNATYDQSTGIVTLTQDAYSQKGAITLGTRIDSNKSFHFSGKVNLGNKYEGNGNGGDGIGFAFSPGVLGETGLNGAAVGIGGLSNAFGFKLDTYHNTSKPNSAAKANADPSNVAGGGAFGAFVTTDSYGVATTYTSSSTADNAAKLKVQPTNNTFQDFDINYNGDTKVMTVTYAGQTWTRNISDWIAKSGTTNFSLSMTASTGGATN

| Structure (SMILES) | Kd [1] | SPR (Biacore T200), dose-dependent [2] |
| --- | --- | --- |
| O=C1O[C@H]2[C@@H]3OC(=O)c4cc(O)c(O)c(O)c4-c4c(O)c(O)c5oc(=O)c6c(c(O)c(O)c7oc(=O)c4c5c76)-c4c(cc(O)c(O)c4O)C(=O)OC[C@H]3OC(O)[C@@H]2OC(=O)c2cc(O)c(O)c(O)c2-c2c1cc(O)c(O)c2O (mixture of isomers) [PA, punicalagin] | 0.566 µM | – |
| COc1cc(-c2oc3cc(O)cc(O)c3c(=O)c2O[C@@H]2O[C@H](CO[C@@H]3O[C@@H](C)[C@H](O)[C@@H](O)[C@H]3O)[C@@H](O)[C@H](O)[C@H]2O)ccc1O [isorhamnetin-3-O-β-rutinoside] | – | isorhamnetin-3-O-β-rutinoside, EGCG, neoeriocitrin, and isoviolanthin, were verified to possess strong binding signals in a dose-dependent manner |
| C[C@@H]1O[C@@H](O[C@H]2[C@H](Oc3cc(O)c4c(c3)O[C@H](c3ccc(O)c(O)c3)CC4=O)O[C@H](CO)[C@@H](O)[C@@H]2O)[C@H](O)[C@H](O)[C@H]1O [neoeriocitrin] | – | EGCG, neoeriocitrin, and isoviolanthin, were verified to possess strong binding signals in a dose-dependent manner |
